Source: patent EP3442594B1, “BLOCK COPOLYMER FOR […] RESISTANCE OF TUMOURS TO CHEMOTHERAPY, ITS POLYMER-DRUG CONJUGATE, PHARMACEUTICAL COMPOSITION CONTAINING THEM, METHOD OF PREPARATION AND USE THEREOF” (Ustav makromolekularni chemie AV CR, v.v.i., priority 2016, dated 2017)
Converted amounts (≈) assume the structure as drawn. “And” between values parts separate entries of the source, which are not always exact repeats. Equal values may be shown once. Read-outs that look alike come from different tables or passages of the source.

Tests used:
[1] = Release of docetaxel or its derivative from polymer conjugates in phosphate buffers (HPLC); assay type: physicochemical; settings: pH 7.4 compared with pH 5.0, 37°C, conjugate 5 mg/mL
Procedure: At predetermined time intervals 200 µL of incubation solution was collected and after the extraction of released drugs and derivatives thereof into chloroform their amounts were determined using an HPLC system (Shimadzu HPLC system equipped with a column with a reverse phase Chromolith Performance RP-18e (100 x 4.6 mm) and UV-VIS detector Shimadzu SPD-10AVvp (230 nm), eluent water-acetonitrile with gradient from 50 to 100 vol% of acetonitrile, flow rate of 0.5 mL x min^-1).

NB3/DOX = experiment: IC50 of drugs with/without block copolymer, AlamarBlue method; assay type: cell-based; settings: cells pre-incubated 1 hour with/without block copolymer at 250 µg/mL
Procedure: (§1) In in vitro experiments the cells were first incubated for 1 hour with/without a diblock or triblock copolymer at a concentration 250 µg/mL and thereto were added the above mentioned drugs in a concentration series. After 72 hours of incubation the metabolic activity of cells was determined using the AlamarBlue method and from it the IC50 of individual drugs. An experiment was performed with non-degradable diblock polymers PHPMA-PPO (Example 20) and triblock polymers (PHPMA)2-PPO (Example 21) as a control.

NB4/DOX = experiment: as above; assay type: cell-based; settings: cells pre-incubated 1 hour with/without block copolymer at 250 µg/mL
Procedure: as §1

[2] = test system: 4T1 - mammary carcinoma cell line; experiment: Cytostatic activity, 3H-thymidine incorporation; assay type: cell-based, murine; settings: Mus musculus; 4T1, 72 hours
Procedure: (§2) These were murine tumour cell lines (CT26 - colon carcinoma cell line, 4T1 - mammary carcinoma cell line, both originating from the BALB/c inbred strain of mice, followed by EL4.IL-2-line of T-cell lymphoma originating from the C57BL/6 inbred strain of mice) and FaDu - a human line of squamous cell carcinoma of the head and neck. […] The cell proliferation was then determined using the standard method of incorporating ^3H-thymidine which was added for the last 6 hours of culture. Subsequently, the cultures were processed using the Tomtec Mach III harvester and, after drying, the radioactivity of samples obtained was measured by the beta-scintillation counter Microbeta Trilux (Wallac) using a solid scintillant (MeltiLex; Perkin Elmer). […] The activity of conjugates was determined by 3H-thymidine incorporation after 72 hours of incubation of cells with various concentrations of drugs. The IC50 values are given in ng of doxorubicin/mL and were calculated as a mean of several independent determinations.

[3] = test system: CT26 - colon carcinoma cell line; experiment: Cytostatic activity, 3H-thymidine incorporation; assay type: cell-based, murine
Procedure: as §2

[4] = test system: EL4.IL-2-line of T-cell lymphoma; experiment: Cytostatic activity, 3H-thymidine incorporation; assay type: cell-based, murine; settings: Mus musculus, EL4.IL-2, 72 hours
Procedure: as §2

[5] = test system: FaDu - a human line of squamous cell carcinoma of the head and neck; experiment: Cytostatic activity, 3H-thymidine incorporation; assay type: cell-based; settings: 72 hours
Procedure: as §2

[6] = test system: murine T-cell lymphoma EL4; experiment: In vivo antitumour effect in the treatment of EL4 lymphoma; set-up: species or system C57BL/6 mice
Procedure: (§3) The in vivo antitumour effect of micellar diblock polymer conjugate of Example 28 carrying doxorubicin (DOX-DB) was studied on a model of murine T-cell lymphoma EL4 in the C57BL/6 inbred strains of mice. The conjugate was administered to mice intravenously (i.v.) in a single dose equivalent to 7.5 mg of doxorubicin/kg. The drug was injected 8 days after subcutaneous administration of 1 x 10^5 EL4 tumour cells, at a time when tumours are developed and the tumour bed size is about 6-8 mm in diameter. […] Further, the free doxorubicin (DOX) was used for treatment, injected at a total dose of 10 mg/kg, which, due to the different pharmacokinetics of a low molecular weight drug and the associated danger of high systemic toxicity, was injected in two partial intravenous doses on the 8th and 12th day after transplantation of tumour cells (each dose of 5 mg of doxorubicin).
(§4) Days mean the death of animals after administration of tumour cells (1 x 10^5 cells EL4 s.c. on day 0), LTS ("long term survivor") means long-term surviving mice without evidence of tumour (at least until day 70 after administration of tumour cells). The last line contains information about the median survival in groups.

[7] = test system: murine T-cell lymphoma EL4; assay type: in vivo
Procedure: as §3, §4

[8] = read-out: IC50 after 72 hours of incubation

For “[raft-poly(HPMA-co-MA-AH-NHN=DTX-LEV)]-GFLG-PPO-NH2 [Example 28B]”, the “release of drug DTX (or its derivative)” value [1] was “released significantly slower”.
With `COc1cccc2c1C(=O)c1c(O)c3c(c(O)c1C2=O)C[C@@](O)(C(=O)CO)C[C@@H]3O[C@H]1C[C@H](N)[C@H](O)[C@H](C)O1` [DOX, doxorubicin] the “IC50 after 72 hours of incubation” value (NB3/DOX) was 0.168 ± 0.005 µg/mL, the IC50 (NB3/DOX; [8]) was 0.215 ± 0.004 µg/mL (≈ 0.396 µM) and the IC50 (NB4/DOX; [8]) was 2.61 ± 0.17 µg/mL (≈ 4.8 µM). The IC50 [2] was 0.0143 µg/mL (≈ 0.0263 µM), the IC50 ([3]; Mus musculus, CT26, 72 hours) was 0.0425 µg/mL (≈ 0.0782 µM) and the IC50 [4] was 0.0122 µg/mL (≈ 0.0224 µM). The IC50 [5] was 0.0048 µg/mL (≈ 0.00883 µM), the complete cure ([6]; 2 x 5 mg DOX/kg i.v.) was “none” and the median survival ([6]; 2 x 5 mg DOX/kg i.v.) was 40.5 days. The “tumour growth in comparison to untreated controls” value ([6]; 2 x 5 mg DOX/kg i.v.) was “the average tumour growth was slower than in the group of untreated mice, but showed a steady progression” and the “Survival: day of death of individual animals after administration of tumour cells” value ([6]; 2 x 5 mg DOX/kg i.v. on days 8 and 12) was 35 Days and 38 Days and 39 Days and 42 Days and 53 Days (2×).
In the case of “[raft-poly(HPMA-co-MA-AH-NHN=DOX)]-GFLG-PPO-NH2 [DB-DOX]”, the “IC50 after 72 hours of incubation” value (NB3/DOX) is reported as 0.919 ± 0.020 µg/mL, the “IC50 after 72 hours of incubation” value (NB4/DOX) is reported as 7.07 ± 0.11 µg/mL and the “decrease of the cytostatic effect of doxorubicin by binding the drug to a diblock carrier” value [3] is reported as 2.6 times. For the same compound, the “first mouse with complete tumour regression, time after drug administration” value ([7]; 1 x 7.5 mg DOX eq./kg) was “eighth day”, the median survival ([7]; 1 x 7.5 mg DOX eq./kg i.v.) was 47.5 days and the “tumour growth in comparison to untreated controls” value ([7]; 1 x 7.5 mg DOX eq./kg i.v.) was “tumour growth stagnation within three days and a significant reduction in growth between the third and sixth day after administration of the drug”. For the same compound, the “Survival: day of death of individual animals after administration of tumour cells” value ([7]; 1 x 7.5 mg DOX eq./kg i.v. on day 8) was 37 Days and 39 Days and 42 Days (2×) and 60 Days and LTS (LTS ("long term survivor") means long-term surviving mice without evidence of tumour (at least until day 70 after administration of tumour cells)) (3×), the “complete cure (share of subjects)” value ([7]; 1 x 7.5 mg DOX eq./kg i.v., 8 mice) was 37.5% and the “mice without apparent tumour at the place of administration” value ([7]; 13 days after drug administration, 1 x 7.5 mg DOX eq./kg) was 4 mice (out of 8). The “resistance against tumour after retransplantation of cured mice (LTS)” value ([7]; retransplanted 119 days after the first tumour, no treatment) was “of these three mice two were resistant”.
